In patent EP4667464A1 (Cyrus Therapeutics Inc., priority 2023, dated 2024):
Like-named read-outs stand apart in the source and are kept apart here.

Columns and labels:
SOS1 = target: T1, SOS1 (Homo sapiens, UniProt Q07889); assay: SOS-catalyzed nucleotide exchange assay (HTRF, SOS1-mediated GTP loading of KRAS G12D); format: biochemical; conditions: GST-KRAS G12D, HIS-SOS1cat, compound 128 pM to 10 µM; read-out: SOS-catalyzed nucleotide exchange assay
T1 construct: HIS-SOS1cat (160 nM; Cytoskeleton, US); His (N); purchased Cytoskeleton
T1 sequence (Q07889 564-1049 limits assumed): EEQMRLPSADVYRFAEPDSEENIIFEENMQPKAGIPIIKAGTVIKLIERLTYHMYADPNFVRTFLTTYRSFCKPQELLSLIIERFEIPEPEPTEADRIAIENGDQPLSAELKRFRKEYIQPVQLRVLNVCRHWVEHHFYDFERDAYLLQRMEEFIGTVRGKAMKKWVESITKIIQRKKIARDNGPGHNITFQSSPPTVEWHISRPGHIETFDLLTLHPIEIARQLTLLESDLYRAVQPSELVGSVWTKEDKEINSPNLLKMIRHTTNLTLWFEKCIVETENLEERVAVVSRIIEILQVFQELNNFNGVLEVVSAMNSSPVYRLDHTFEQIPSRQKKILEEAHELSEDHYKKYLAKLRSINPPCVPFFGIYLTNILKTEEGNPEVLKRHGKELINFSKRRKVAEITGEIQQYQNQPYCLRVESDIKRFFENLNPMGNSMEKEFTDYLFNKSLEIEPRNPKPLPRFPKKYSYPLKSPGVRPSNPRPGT

[1] = system: lung cancer cell line NCI-H358 having the KRAS G12C variant; assay: Cancer cell growth inhibition, 3D spheroids (CellTiter-Glo 3D); format: cell-based; conditions: 3D spheroids, 0.002-10 µM, 5 days, read-out: H358 cell viability
Method: Thereafter, the plate with the cells cultured was adapted to room temperature for 10 minutes, and then 50 µL of CellTiter-Glo® 3D Cell Viability Assay (PROMEGA, G9683) solution was dispensed, and reacted on a horizontal stirrer at a speed of 300 RPM for 30 minutes to induce the cell lysis. […] Thereafter, based on the measured values, the degree of cell growth in the well treated with each compound was calculated when the final cell density value of the well not treated with the test substance was set to 100%.

KRAS G12C::SOS1 = target: T2, KRAS G12C::SOS1 (Homo sapiens, UniProt Q07889); assay: KRAS G12C::SOS1 protein-protein interaction (PPI) inhibition assay (HTRF); format: binding; conditions: 8 concentrations from 3 µM, three replicates; read-out: KRAS G12C::SOS1 PPI
T2 construct: purchased CISBIO 64KRASG12PEH
T2 sequence (Q07889 1-1333): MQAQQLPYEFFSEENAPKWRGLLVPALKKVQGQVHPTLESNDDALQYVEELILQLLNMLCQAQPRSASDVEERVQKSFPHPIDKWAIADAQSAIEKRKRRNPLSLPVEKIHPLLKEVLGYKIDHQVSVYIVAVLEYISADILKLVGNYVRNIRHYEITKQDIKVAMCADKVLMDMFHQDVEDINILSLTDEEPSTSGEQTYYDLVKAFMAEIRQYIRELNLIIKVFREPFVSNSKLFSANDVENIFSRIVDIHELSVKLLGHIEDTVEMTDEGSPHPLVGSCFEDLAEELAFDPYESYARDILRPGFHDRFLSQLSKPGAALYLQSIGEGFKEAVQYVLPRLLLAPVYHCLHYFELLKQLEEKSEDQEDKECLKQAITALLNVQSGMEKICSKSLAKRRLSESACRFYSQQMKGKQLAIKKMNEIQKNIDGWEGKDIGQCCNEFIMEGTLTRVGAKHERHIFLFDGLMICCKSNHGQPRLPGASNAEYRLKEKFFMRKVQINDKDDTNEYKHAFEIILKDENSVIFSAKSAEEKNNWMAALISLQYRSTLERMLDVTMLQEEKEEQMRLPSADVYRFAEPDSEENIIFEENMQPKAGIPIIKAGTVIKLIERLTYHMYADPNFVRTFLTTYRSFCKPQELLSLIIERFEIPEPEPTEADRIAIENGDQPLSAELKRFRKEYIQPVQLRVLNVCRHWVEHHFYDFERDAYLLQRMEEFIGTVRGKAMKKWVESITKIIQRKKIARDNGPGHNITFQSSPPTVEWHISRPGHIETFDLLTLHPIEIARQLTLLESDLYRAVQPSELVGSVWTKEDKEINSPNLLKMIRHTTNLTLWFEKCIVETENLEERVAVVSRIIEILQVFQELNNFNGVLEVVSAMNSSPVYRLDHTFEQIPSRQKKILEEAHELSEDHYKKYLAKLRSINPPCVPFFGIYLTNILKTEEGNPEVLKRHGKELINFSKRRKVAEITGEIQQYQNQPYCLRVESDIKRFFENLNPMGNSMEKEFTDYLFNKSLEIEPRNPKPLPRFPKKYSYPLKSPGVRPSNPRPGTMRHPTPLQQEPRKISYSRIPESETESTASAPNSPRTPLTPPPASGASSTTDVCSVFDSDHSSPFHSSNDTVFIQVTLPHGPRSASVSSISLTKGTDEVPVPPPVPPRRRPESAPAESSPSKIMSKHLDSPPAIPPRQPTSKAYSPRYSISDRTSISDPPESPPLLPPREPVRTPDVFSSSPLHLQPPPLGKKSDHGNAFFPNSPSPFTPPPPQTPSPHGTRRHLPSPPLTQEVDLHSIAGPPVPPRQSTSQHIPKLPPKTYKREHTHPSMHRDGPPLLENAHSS
Summary of the method: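 Compounds, at eight 3-fold dilutions from 3 µM, were mixed with GTP-loaded Tag1-KRAS G12C, Tag2-SOS1 and a terbium-cryptate donor plus XL665 acceptor antibody pair. After 2 h at room temperature, time-resolved FRET reported the KRAS–SOS1 interaction.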

`C[C@@H](NC(=O)c1cc(C2=CCCCC2)c(=O)n(-c2cncc(-c3cnnn3C)c2)c1)c1cccc(C(F)(F)F)c1F` [Example 15, N-{(R)-1-[2-fluoro-3-(trifluoromethyl)phenyl]ethyl}-5-(1-cyclohexen-1-yl)-5'-(1-methyl-1H-1,2,3-triazol-5-yl)-6-oxo-1H-[1,3'-bipyridyl]-3-carboxamide] was tested, and the IC50 (SOS1) was less than 50 nM, the IC50 ([1]; Homo sapiens, NCI-H358, 120 h) was less than 1000 nM and the IC50 (KRAS G12C::SOS1) was less than 50 nM.

`C[C@@H](NC(=O)c1ccc(=O)n(-c2cnnc(-c3ccnn3C)c2)n1)c1cccc(C(F)(F)CO)c1F` [Example 1-20, N-[(1R)-1-[3-(1,1-difluoro-2-hydroxy-ethyl)-2-fluoro-phenyl]ethyl]-1-[6-(2-methylpyrazol-3-yl)pyridazin-4-yl]-6-oxo-pyridazine-3-carboxamide] gave an IC50 (SOS1) of 50 to 150 nM, an IC50 ([1]; Homo sapiens, NCI-H358, 120 h) greater than 3000 nM and an IC50 (KRAS G12C::SOS1) greater than 150 nM.

`Cc1cc(C(=O)N[C@H](C)c2cc(N)cc(C(F)F)c2)nn(-c2cncc(-c3cnnn3C)c2)c1=O` [Example 2-7, N-[(1R)-1-[3-amino-5-(difluoromethyl)phenyl]ethyl]-5-methyl-1-[5-(3-methyltriazol-4-yl)-3-pyridyl]-6-oxo-pyridazine-3-carboxamide] gave an IC50 (SOS1) of less than 50 nM, an IC50 ([1]; Homo sapiens, NCI-H358, 120 h) greater than 3000 nM and an IC50 (KRAS G12C::SOS1) of less than 50 nM.

For `C[C@@H](NC(=O)c1ccc(=O)n(-c2cc(-c3cnnn3C3CC3)cnc2F)c1)c1cccc(C(F)(F)F)c1F` [Example 1-67, (R)-5'-(1-cyclopropyl-1H-1,2,3-triazol-5-yl)-2'-fluoro-N-(1-(2-fluoro-3-(trifluoromethyl)phenyl)ethyl)-2-oxo-2H-[1,3'-bipyridine]-5-carboxamide], the IC50 (SOS1) was less than 50 nM, the IC50 ([1]; Homo sapiens, NCI-H358, 120 h) was less than 1000 nM and the IC50 (KRAS G12C::SOS1) was 50 to 150 nM.

Compound `C[C@@H](NC(=O)c1ccc(=O)n(-c2cncc(-c3cnnn3C)c2)n1)c1cc(N)cc(C(F)(F)F)c1F` [Example 2-1, N-[(1R)-1-[5-amino-2-fluoro-3-(trifluoromethyl)phenyl]ethyl]-1-[5-(3-methyltriazol-4-yl)-3-pyridyl]-6-oxo-pyridazine-3-carboxamide] has an IC50 (SOS1) of less than 50 nM, an IC50 ([1]; Homo sapiens, NCI-H358, 120 h) of less than 1000 nM and an IC50 (KRAS G12C::SOS1) of less than 50 nM.

Compound “N-[(1R)-1-[3-(1,1-difluoro-2-hydroxy-ethyl)-2-fluoro-phenyl]ethyl]-1-[5-(2-methylpyrazol-3-yl)-3-pyridyl]-6-oxo-pyridazine-3-carboxamide [Example 1-16]” has an IC50 (SOS1) of 50 to 150 nM, an IC50 [1] of less than 1000 nM and an IC50 (KRAS G12C::SOS1) of 50 to 150 nM.

In the case of `Cc1cc(C(=O)N[C@H](C)c2cccc(C(F)(F)F)c2F)nn(-c2cncc(-c3cnnn3C)c2)c1=O` [Example 7-3, N-{ (R)-1-[2-fluoro-3-(trifluoromethyl)phenyl]ethyl}-5-methyl-1-[5-(1-methyl-1H-1,2,3-triazol-5-yl)-3-pyridyl]-6-oxo-1,6-dihydropyridazine-3-carboxamide], the IC50 (SOS1) is reported as 50 to 150 nM, the IC50 ([1]; Homo sapiens, NCI-H358, 120 h) is reported as less than 1000 nM and the IC50 (KRAS G12C::SOS1) is reported as less than 50 nM.

`Cc1cc(C(=O)N[C@H](C)c2cccc(C(F)(F)CO)c2F)nn(-c2cncc(-c3cnnn3C3CC3)c2)c1=O` [Example 1-40, N-{(R)-1-[3-(1,1-difluoro-2-hydroxyethyl)-2-fluorophenyl]ethyl}-1-[5-(1-cyclopropyl-1H-1,2,3-triazol-5-yl)-3-pyridyl]-5-methyl-6-oxo-1,6-dihydropyridazine-3-carboxamide] gave an IC50 (SOS1) of less than 50 nM, an IC50 ([1]; Homo sapiens, NCI-H358, 120 h) of less than 1000 nM and an IC50 (KRAS G12C::SOS1) of less than 50 nM.

Compound `Cc1c([C@@H](C)NC(=O)c2ccc(=O)n(-c3cncc(-c4ccnn4C)c3)n2)cc(N)cc1C(F)(F)F` [Example 2-4, N-[(1R)-1-[5-amino-2-methyl-3-(trifluoromethyl)phenyl]ethyl]-1-[5-(2-methylpyrazol-3-yl)-3-pyridyl]-6-oxo-pyridazine-3-carboxamide] has an IC50 (SOS1) of less than 50 nM, an IC50 ([1]; Homo sapiens, NCI-H358, 120 h) of less than 1000 nM and an IC50 (KRAS G12C::SOS1) of less than 50 nM.

Work on `CCn1nncc1-c1cncc(-n2nc(C(=O)N[C@H](C)c3cccc(C(F)(F)F)c3F)cc(CO)c2=O)c1` [Example 6-4, N-{ (R)-1-[2-fluoro-3-(trifluoromethyl)phenyl]ethyl}-1-[5-(1-ethyl-1H-1,2,3-triazol-5-yl)-3-pyridyl]-5-(hydroxymethyl)-6-oxo-1,6-dihydropyridazine-3-carboxamide] yielded an IC50 (SOS1) of less than 50 nM, an IC50 ([1]; Homo sapiens, NCI-H358, 120 h) of less than 1000 nM and an IC50 (KRAS G12C::SOS1) of 50 to 150 nM.

Work on `Cc1ncc(-n2nc(C(=O)N[C@H](C)c3cccc(C(F)(F)CO)c3F)ccc2=O)cc1-c1cnnn1C` [Example 1-29] yielded an IC50 (SOS1) of 50 to 150 nM, an IC50 ([1]; Homo sapiens, NCI-H358, 120 h) of less than 1000 nM and an IC50 (KRAS G12C::SOS1) of less than 50 nM.

Work on `C[C@@H](NC(=O)c1cc(CO)c(=O)n(-c2cncc(-c3cnnn3C)c2)n1)c1cccc(C(F)(F)F)c1F` [Example 1-61, N-{(R)-1-[2-fluoro-3-(trifluoromethyl)phenyl]ethyl}-5-(hydroxymethyl)-1-[5-(1-methyl-1H-1,2,3-triazol-5-yl)-3-pyridyl]-6-oxo-1,6-dihydropyridazine-3-carboxamide] yielded an IC50 (SOS1) of 50 to 150 nM, an IC50 ([1]; Homo sapiens, NCI-H358, 120 h) of less than 1000 nM and an IC50 (KRAS G12C::SOS1) of less than 50 nM.

With `CCn1nncc1-c1cncc(-n2nc(C(=O)N[C@H](C)c3cccc(C(F)(F)F)c3F)ccc2=O)c1` [Example 1-12, N-[(1R)-1-[2-fluoro-3-(trifluoromethyl)phenyl]ethyl]-1-[5-(3-ethyltriazol-4-yl)-3-pyridyl]-6-oxo-pyridazine-3-carboxamide] the IC50 (SOS1) was less than 50 nM, the IC50 ([1]; Homo sapiens, NCI-H358, 120 h) was less than 1000 nM and the IC50 (KRAS G12C::SOS1) was 50 to 150 nM.

With `CCn1nncc1-c1cncc(-n2nc(C(=O)N[C@H](C)c3cccc(C(F)(F)F)c3F)cc(C)c2=O)c1` [Example 1-25, 1-[5-(3-ethyltriazol-4-yl)-3-pyridyl]-N-[(1R)-1-[2-fluoro-3-(trifluoromethyl)phenyl]ethyl]-5-methyl-6-oxo-pyridazine-3-carboxamide] the IC50 (SOS1) was less than 50 nM, the IC50 ([1]; Homo sapiens, NCI-H358, 120 h) was less than 1000 nM and the IC50 (KRAS G12C::SOS1) was 50 to 150 nM.

`CC(C)n1nncc1-c1cncc(-n2nc(C(=O)N[C@H](C)c3cccc(C(F)(F)F)c3F)cc(CO)c2=O)c1` [Example 6-2, N-{(1R)-1-[2-fluoro-3-(trifluoromethyl)phenyl]ethyl}-1-[5-(1-isopropyl-1H-1,2,3-triazol-5-yl)-3-pyridyl]-5-(hydroxymethyl)-6-oxo-1,6-dihydropyridazine-3-carboxamide] gave an IC50 (SOS1) of less than 50 nM, an IC50 ([1]; Homo sapiens, NCI-H358, 120 h) of less than 1000 nM and an IC50 (KRAS G12C::SOS1) of 50 to 150 nM.

Work on `C[C@@H](NC(=O)c1ccc(=O)n(-c2cncc(-c3cnnn3C)c2)c1)c1cccc(C(F)(F)F)c1F` [Example 1-24, N-[(1R)-1-[2-fluoro-3-(trifluoromethyl)phenyl]ethyl]-1-[5-(3-methyltriazol-4-yl)-3-pyridyl]-6-oxo-pyridine-3-carboxamide] yielded an IC50 (SOS1) of less than 50 nM, an IC50 ([1]; Homo sapiens, NCI-H358, 120 h) of less than 1000 nM and an IC50 (KRAS G12C::SOS1) of less than 50 nM.
